Counter-ions that a name gives are not always drawn.

The subject of assay [1] is K562R cells (drug-resistant K562, high Bcr/Abl protein). As to the kind of experiment: Apoptosis in drug-resistant K562R cells, morphologic assessment. The format is cell-based, human.
Description: (§1) They are cultured in drug-free medium prior to all experimental procedures.
Values represent the means for three separate experiments performed in triplicate±S.D.
Assay [2] deals with K562 human leukemia cells. As to the kind of experiment: Apoptosis in K562 cells, morphologic assessment of Wright-Giemsa-stained slides. The format is cell-based.
Description: as §1
Assessment of apoptosis: Following drug exposures, cytocentrifuge preparations are stained with Wright-Giemsa and viewed by light microscopy to evaluate the extent of apoptosis as described in Wang Z. et al., 1999 Cancer Res. 59, 1259-67.
Values represent the means for three separate experiments performed in triplicate±SD (standard deviation).
Values represent the means for three separate experiments performed in triplicate±S.D (standard deviation).
The Combination Index (CI) is determined in relation to the fraction of cells affected using Median Dose Effect analysis. Results are representative of three separate experiments.

Consider `CN1CC[C@H](c2c(O)cc(O)c3c(=O)cc(-c4ccccc4Cl)oc23)[C@H](O)C1` [FP, 4H-1-benzopyran-4-one,2-(2-chlorophenyl)-5,7-dihydroxy-8-(3-hydroxy-1-methyl-4-piperidinyl)-,hydrochloride, (−)-cis-], for which the “toxicity” value in assay [1] (48-hr exposure, 150 nM FP) was “non-toxic”. Besides, the “percentage of apoptotic cells, mean” value in assay [1] (48 h, FP 200 nM) turned out to be 1.77%; in assay [2] (K562, 24 h, FP 150 nM (time course)) it was 1.40%; in assay [2] (K562, 48 h, FP 50 nM without SALT I), 1.9%; in assay [2] (K562, 48 h, FP 100 nM without SALT I) it was 2.4%; in assay [2] (K562, 48 h, FP 150 nM (time course)), 3.33%; in assay [2] (K562, 48 h, FP 150 nM without SALT I), 3.2%. Besides, the “percentage of apoptotic cells, mean” value in assay [2] (K562, 48 h, FP 200 nM without SALT I) worked out at 6.1%; in assay [2] (K562, 48 h, FP 300 nM without SALT I), 18.5%; in assay [2] (K562, 48 h, SALT I 0 nM + FP 150 nM (FP alone)), 0.9%. In assay [2] (K562, 150 nM FP by itself), this molecule yielded a cell death of under 5%.
Take `Cc1ccc(NC(=O)c2ccc(CN3CCN(C)CC3)cc2)cc1Nc1nccc(-c2cccnc2)n1` [SALT I, 4-[(4-methyl-1-piperazin-1-ylmethyl)-N-[4-methyl-3-[[4-(3-pyridinyl)-2-pyrimidinyl]amino]phenyl]benzamide methanesulfonate]: the “percentage of apoptotic cells, mean” value came out at 2.57% in assay [2] (K562, 24 h, SALT I 200 nM (time course)); 5.7% in assay [2] (K562, 48 h, FP 0 nM + SALT I 200 nM (SALT I alone)); 1.9% in assay [2] (K562, 48 h, SALT I 50 nM without FP); 1.8% in assay [2] (K562, 48 h, SALT I 100 nM without FP); 3.0% in assay [2] (K562, 48 h, SALT I 150 nM without FP); 5.97% in assay [2] (K562, 48 h, SALT I 200 nM (time course)). Also, the “percentage of apoptotic cells, mean” value in assay [2] (K562, 48 h, SALT I 200 nM without FP) was found to be 4.6%; in assay [2] (K562, 48 h, SALT I 250 nM without FP) it was 8.9%; in assay [2] (K562, 48 h, SALT I 300 nM without FP) it was 20.3%; in assay [2] (K562, 48 h, SALT I 400 nM without FP) it was 30.8%; in assay [2] (K562, 48 h, SALT I 500 nM without FP), 53.8%. For the same molecule, in assay [2] (K562, 48 hr, SALT I concentrations <300 nM), the “induction of apoptosis” value is recorded as “weakly induces apoptosis”. The apoptosis in assay [2] (parental K562S cells, 1.5 μM SALT I, 48 hr) is on record as over 95%.

Values taken from patent US7888341B2, “Combination of glivec (STI571) with a cyclin-dependent kinase inhibitor, especially flavopiridol, in the treatment of cancer” (The United States of America as represented by the …, priority 2002, dated 2011).
